Assay [1] has as its target Casein kinase II subunit alpha (Homo sapiens, UniProt P68400). Put plainly: Inhibition of CK2 alpha (unknown origin) at 10 uM relative to control.
Assay [2] deals with Vascular endothelial growth factor receptor 2 (Homo sapiens, UniProt P35968).
Description: Inhibition of VEGFR-2 (unknown origin) relative to control
Assay [3] has as its system HepG2. Put plainly: Induction of apoptosis in human HepG2 cells assessed as early apoptotic cells at antiproliferative IC50 incubated for 24 hrs by annexin V FITC and propidium iodide staining based flow cytometry (reference value: 0.61 %). The format is functional.
The subject of assay [4] is HCT-116. Put plainly: Induction of cell cycle arrest in human HCT-116 cells assessed as accumulation of cells at G0/G1 phase at antiproliferative IC50 by PI staining based flow cytometric analysis (reference value: 48.52%). It is filed as functional. (In flow cytometry, cells or beads pass a laser one at a time.)
The subject of assay [5] is MCF7. Put plainly: Induction of cell cycle arrest in human MCF7 cells assessed as accumulation of cells at G0/G1 phase at antiproliferative IC50 by PI staining based flow cytometric analysis (reference value: 56.14%). The format is functional.
For assay [6], the system named is MCF7. Put plainly: Induction of apoptosis in human MCF-7 cells assessed as decrease in Bcl-2 protein expression by Western blot analysis relative to untreated control. The format is functional. For orientation: Immunoblotting shows a protein as a band on a membrane.
Assay [7] deals with HCT-116. The assay is described as follows: Induction of cell cycle arrest in human HCT-116 cells assessed as cell debris at antiproliferative IC50 by PI staining based flow cytometric analysis (reference value: 1.42%). It is filed as functional. To be noted: time 24 hrs.
The subject of assay [8] is MCF7. Put plainly: Induction of cell cycle arrest in human MCF7 cells assessed as aggregates at antiproliferative IC50 by PI staining based flow cytometric analysis (reference value: 2.11%). The format is functional. To be noted: time 24 hrs.
In assay [9] the test system is MCF7. The assay is described as follows: Induction of cell cycle arrest in human MCF7 cells assessed as accumulation of cells at Pre-G1 phase at antiproliferative IC50 by PI staining based flow cytometric analysis (reference value: 1.78%). The format is functional.
Assay [10] concerns HCT-116. Put plainly: Antitumor activity against human HCT-116 cells assessed as inhibition of cell viability by MTT assay. The format is functional, cell-based.
Assay [11] concerns HepG2. Put plainly: Induction of cell cycle arrest in human HepG2 cells assessed as aggregates at antiproliferative IC50 by PI staining based flow cytometric analysis (reference value: 1.52%). The format is functional. Conditions: time 24 hrs.

Sequence of Vascular endothelial growth factor receptor 2 (P35968 whole entry): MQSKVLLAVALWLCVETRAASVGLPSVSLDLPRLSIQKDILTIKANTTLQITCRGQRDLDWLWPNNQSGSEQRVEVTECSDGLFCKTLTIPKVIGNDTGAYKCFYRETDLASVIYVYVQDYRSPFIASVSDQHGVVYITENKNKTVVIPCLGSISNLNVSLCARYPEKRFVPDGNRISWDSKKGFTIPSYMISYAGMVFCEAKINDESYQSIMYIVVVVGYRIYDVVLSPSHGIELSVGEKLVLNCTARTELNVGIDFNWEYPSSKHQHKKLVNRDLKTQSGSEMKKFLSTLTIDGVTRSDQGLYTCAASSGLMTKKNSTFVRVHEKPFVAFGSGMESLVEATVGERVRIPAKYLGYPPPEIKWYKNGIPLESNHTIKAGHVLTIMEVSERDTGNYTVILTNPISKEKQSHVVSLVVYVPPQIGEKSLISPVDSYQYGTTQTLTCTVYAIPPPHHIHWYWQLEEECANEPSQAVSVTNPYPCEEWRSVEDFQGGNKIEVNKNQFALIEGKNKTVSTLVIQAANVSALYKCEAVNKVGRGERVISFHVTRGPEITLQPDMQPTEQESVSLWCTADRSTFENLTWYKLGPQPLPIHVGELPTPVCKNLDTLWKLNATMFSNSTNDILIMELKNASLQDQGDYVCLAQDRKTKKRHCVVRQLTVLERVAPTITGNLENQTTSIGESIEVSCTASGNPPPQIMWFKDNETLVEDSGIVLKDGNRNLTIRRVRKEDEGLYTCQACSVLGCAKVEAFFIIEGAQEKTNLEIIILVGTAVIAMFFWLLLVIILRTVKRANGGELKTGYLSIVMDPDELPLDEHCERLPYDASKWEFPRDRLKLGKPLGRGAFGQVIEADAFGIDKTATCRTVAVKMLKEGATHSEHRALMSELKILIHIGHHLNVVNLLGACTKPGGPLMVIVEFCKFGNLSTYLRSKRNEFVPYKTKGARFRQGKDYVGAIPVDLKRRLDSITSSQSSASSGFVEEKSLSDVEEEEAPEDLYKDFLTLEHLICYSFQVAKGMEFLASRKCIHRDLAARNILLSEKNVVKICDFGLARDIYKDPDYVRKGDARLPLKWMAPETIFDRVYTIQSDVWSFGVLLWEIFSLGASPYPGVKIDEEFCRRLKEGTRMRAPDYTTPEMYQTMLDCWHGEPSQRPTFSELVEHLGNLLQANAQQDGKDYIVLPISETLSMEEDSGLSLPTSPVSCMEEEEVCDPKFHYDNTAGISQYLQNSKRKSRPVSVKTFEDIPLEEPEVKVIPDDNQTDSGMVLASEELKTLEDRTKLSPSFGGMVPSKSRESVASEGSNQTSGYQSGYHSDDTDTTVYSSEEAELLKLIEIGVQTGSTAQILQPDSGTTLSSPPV
Sequence of Casein kinase II subunit alpha (P68400 whole entry, looked up): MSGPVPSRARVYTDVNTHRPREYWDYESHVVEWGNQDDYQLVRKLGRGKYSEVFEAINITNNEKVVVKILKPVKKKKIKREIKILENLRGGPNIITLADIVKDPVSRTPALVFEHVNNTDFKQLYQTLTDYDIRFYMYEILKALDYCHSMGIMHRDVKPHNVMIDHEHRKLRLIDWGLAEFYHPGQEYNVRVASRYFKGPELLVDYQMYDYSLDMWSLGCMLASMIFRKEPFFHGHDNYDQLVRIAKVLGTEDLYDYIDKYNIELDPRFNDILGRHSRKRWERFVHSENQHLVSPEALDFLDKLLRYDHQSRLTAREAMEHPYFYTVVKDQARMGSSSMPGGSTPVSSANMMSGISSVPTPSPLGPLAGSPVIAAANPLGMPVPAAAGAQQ

As for `Cc1cc(NC2=NC(=O)/C(=C\c3c4ccccc4cc4ccccc34)S2)no1`, the inhibition in assay [1] turned out to be 76.3%. In addition, the IC50 in assay [2] is 0.087 µM; in assay [10], 7.72 µM. In addition, the Activity in assay [3] was found to be 3.51%; in assay [4] it was 29.67%; in assay [5], 44.25%; in assay [7], 1.92%; in assay [8] it was 2.11%; in [9], 16.41%. For the same compound, the Activity in [11] is reported as 1.55%. Besides, the “fold change (FC)” value in assay [6] was found to be 0.62.

Usually inhibition stands for the drop in the measured response relative to a control, in per cent. Higher therefore signals a response far below the control. In general, IC50 refers to the point on the concentration scale where inhibition reaches its midpoint.

Source of the values: ChEMBL document CHEMBL4665865, “New series of isoxazole derivatives targeting EGFR-TK: Synthesis, molecular modeling and antitumor evaluation” (Bioorg Med Chem, 2020).
